The term Hill slope denotes a measure of the steepness of the concentration-response curve. For orientation: IC50 means the concentration needed to halve the response being measured. Broadly, the logP is a log measure of how a compound divides between an organic and an aqueous phase.

SMILES strings stand for the structures. Read-outs that look alike come from different tables or passages of the source. Bounds are passed on as bounds.

Series [1] concerns the target T1, mIDH1R132H (Homo sapiens, UniProt O75874, R132H).
T1 construct: purchased BPS Bioscience, San Diego, CA, USA
Nature of the series: enzymatic inhibition assay with commercial IDH1 (R132H) kit. Format: biochemical. As to conditions: for Amax (fit parameter) / Amin (fit parameter) / Hill slope: Hill fit; for Amax (fit parameter) / Amin (fit parameter) / Hill slope / IC50: parentheses = 95% CI; for IC50: non-labeled compounds, n = 3, read-out: IC50 for suppression of mIDH1R132H. As for the experimental part: The inhibitory activity of the candidate probes against mIDH1 was evaluated by enzymatic assays with serially diluted solutions of the non-labeled compounds using a commercially available assay kit (IDH1 (R132H) from BPS Bioscience, San Diego, CA, USA). IC50 values were determined with GraphPad Prism 4.00 by fitting the resulting dose-response curves with the Hill function.
Data are shown as mean ± standard deviation (n = 3). For additional fit parameters and 95% confidence intervals, see Table S12 in Section S4.1.4 of Supplementary Materials. TEXT PRINTED IN THE PICTURE: (S)-2: IC50 [nM]: 102 | (R)-2: IC50 [nM]: 1358 | 4: IC50 [nM]: 713 | 5: IC50 [nM]: 8279
4.1.4. Inhibitory potency (IC50)
Values in parenthesis indicate 95% confidence intervals.

The nature of series [2]: lipophilicity by shake-flask method (n-octanol/water or PBS). As to conditions: triplicate; for logD: n-octanol/PBS pH 7.4, shake-flask, read-out: logD7.4 Exp. Determined; for logP: n-octanol/water, shake-flask. Format: physicochemical. As for the experimental part:
As a measure for the lipophilicity of the four radiolabeled probes, their partition coefficients (logP) and distribution coefficients at pH 7.4 (logD7.4) were determined by the shake-flask method. Table 1 summarizes the results of these experiments and compares them with the predicted logD7.4 values calculated using the ADMETlab platform.
A solution of the corresponding radiotracer in DMSO (1 µL) was added to a mixture of n-octanol and PBS (pH = 7.4) or water (750 µL of each) in a 2 mL Eppendorf vial and the vial was vortexed for 2 min and centrifuged for another 2 min to separate the two phases. A total of 300 µL of the upper n-octanol phase was then carefully removed from the top, while 300 µL of the aqueous phase was removed by piercing the bottom of the vial with a syringe and cannula to avoid contact with the organic phase. Both fractions were transferred into fresh vials and counted in a gamma counter to determine the ratio between the activity in the organic and the aqueous phase. All measurements were performed in triplicate and the results are expressed as mean ± standard deviation of the logarithm of the partition coefficient between n-octanol and water (logP) or the logarithm of the distribution coefficient between n-octanol and PBS (logD7.4), respectively.

In another series the test system is U87-mIDH cells. Nature of the series: cellular uptake in U87-mIDH cells. It is filed as cell-based, human. The following applies: U87-mIDH cells; for cellular uptake: incubation 1 h. The procedure:
(§1) Consistent with this assumption, uptake of [^18F]4 and, to a lesser extent, the ^18F-fluoroethoxylated analog [^18F]5 by both cell lines was considerably higher than that of (S)-[^18F]2.
(§2) Human glioblastoma cells with a c.395G>A knock-in mutation encoding mIDH1R132H (HTB-14IG™) and the corresponding wildtype cells (HTB-14™) were purchased from the American Type Culture Collection (ATCC). The cells were grown under standard culture conditions (5% CO2 and 95% air at 37 °C) in Eagle’s Minimum Essential Medium (MEM) supplemented with 10% fetal bovine serum (FBS) and antibiotics (penicillin–streptomycin mixed solution, Gibco, Thermo Fisher Scientific, Oberhausen, Germany).
(§3) For the cellular uptake studies, 1.5 × 10^5 cells were seeded into gelatin-coated 12-well transwell plates and incubated in 1 mL MEM (without FBS and antibiotics) containing 18.5 kBq (0.5 µCi) of the corresponding radiotracer. After incubation at 21 °C for 1 h, the supernatant was collected, the cells were lysed with 40 mM NaOH and the radioactivity of both fractions was measured with a gamma counter. The total protein concentration of the cell lysate was measured by a bicinchoninic acid (BCA) assay. The radiotracer uptake was calculated as the ratio of radioactivity in the cell fraction and the supernatant and normalized by protein content (% uptake/100 µg protein). Statistical analysis of the results was performed with Originlab Pro 2023b using two-tailed t-tests with a significance level of 0.05 to identify significant differences between groups.

Series [3] can be described thus: stability of reference compounds in DMSO. The following applies: room temperature, at least 28 h, non-labeled reference compounds. It is filed as physicochemical. The procedure:
The in vitro stability of the radiolabeled probes was evaluated by incubation studies with phosphate-buffered saline (PBS) and rat serum.
A solution of the corresponding reference compound in DMSO (1 mg/mL) was incubated at room temperature for 28–30 h, during which aliquots were removed every few hours and analyzed by analytical HPLC. The fraction of intact reference compound at each time point was calculated by dividing the peak area of the reference compound by the total area of all peaks in the chromatogram and plotted as a function of time.

For the next series, the system named is U87-WT cells. Description: cellular uptake in U87-WT cells. It is filed as cell-based, human. The following applies: incubation 1 h. The procedure: as §1, §2, §3
The target of series [4] is T1, mIDH1R132H. As to conditions: cited from earlier work.

T1 sequence (O75874 whole entry R132H): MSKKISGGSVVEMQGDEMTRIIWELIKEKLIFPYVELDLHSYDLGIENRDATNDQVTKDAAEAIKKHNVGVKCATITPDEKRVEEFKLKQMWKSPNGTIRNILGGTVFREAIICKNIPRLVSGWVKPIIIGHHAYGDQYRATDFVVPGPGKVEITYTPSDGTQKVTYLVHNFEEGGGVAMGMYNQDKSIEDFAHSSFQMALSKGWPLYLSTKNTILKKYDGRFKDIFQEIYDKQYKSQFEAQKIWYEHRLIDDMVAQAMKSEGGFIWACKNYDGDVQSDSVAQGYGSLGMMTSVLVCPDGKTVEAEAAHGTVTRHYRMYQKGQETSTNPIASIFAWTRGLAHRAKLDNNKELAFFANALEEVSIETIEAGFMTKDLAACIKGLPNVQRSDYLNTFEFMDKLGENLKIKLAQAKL

As to `C[C@@H](Nc1ccc(C#N)n(C)c1=O)c1cc2cc(F)ccc2[nH]c1=O` [(R)-2, (R)-5-[{1-(6-Fluoro-2-oxo-1,2-dihydroquinoline-3-yl)ethyl}amino]-1-methyl-6-oxo-1,6-dihydropyridine-2-carbonitrile], at mIDH1R132H [1], the “fold higher IC50 value relative to (S)-enantiomer” value was above 10 fold, the “Amax (fit parameter)” value is listed as 79 (72−87) %, the “Amin (fit parameter)” value is 28 (25−31) % and the Hill slope is listed as 3.0 (1.3−4.8). The IC50 on mIDH1R132H [1] was 1360 nM.

As to `C[C@@H](Nc1ccc(C#N)n(C)c1=O)c1cc2cc([18F])ccc2[nH]c1=O` [(R)-[^18F]2], in series [2], the logD came to 2.51 ± 0.11 and the logP entry is on record as “negative”. The cellular uptake in the series with U87-mIDH cells amounted to 0.5 ± 0.1 % per 100 µg protein.

Take `C[C@H](Nc1ccc(C#N)n(C)c1=O)c1cc2cc(F)ccc2[nH]c1=O` [(S)-2, (S)-5-[{1-(6-Fluoro-2-oxo-1,2-dihydroquinoline-3-yl)ethyl}amino]-1-methyl-6-oxo-1,6-dihydropyridine-2-carbonitrile]: on mIDH1R132H [1], the “Amax (fit parameter)” value is listed as 95 (93−97) %, the “Amin (fit parameter)” value is 33 (30−35) %, the Hill slope is recorded as 5.6 (4.0−7.2) and the IC50 was 102 nM. Further, in series [3], the “decomposition in DMSO” value is “no decomposition”.

As for `C[C@H](Nc1ccc(C#N)n(C)c1=O)c1cc2cc([18F])ccc2[nH]c1=O` [(S)-[^18F]2], the logD in series [2] was 2.51 ± 0.11. In the series with U87-mIDH cells, the “fold higher cellular uptake than (R)-[^18F]2” value is given as “approx. 2 fold” and the cellular uptake is recorded as 0.9 ± 0.2 % per 100 µg protein. The cellular uptake in the series on U87-WT cells was determined as 1.2 ± 0.7 % per 100 µg protein.

As to `N#Cc1ccc(NCc2cc3cc(F)ccc3[nH]c2=O)cc1OCC[18F]` [[^18F]5], in series [2], the logD is 2.72 ± 0.06. Also, the logP in series [2] (read-out: logP) worked out at 2.77 ± 0.03. For the same compound, the cellular uptake turned out to be 3.2 ± 0.6 % per 100 µg protein in the series on U87-mIDH cells and 3.7 ± 0.6 % per 100 µg protein with U87-WT cells.

Consider `COc1cc(NCc2cc3cc(Cl)ccc3[nH]c2=O)ccc1C#N` [compound 3], for which the “Selectivity (ratio of biochemical IC50 values for mIDH1R132H and the wildtype enzyme)” value on mIDH1R132H [4] is reported as above 700.

As to `COc1cc(NCc2cc3cc(F)ccc3[nH]c2=O)ccc1C#N` [compound 4, 4-{[(6-Fluoro-2-oxo-1,2-dihydroquinolin-3-yl)methyl]amino}-2-methoxybenzonitrile], at mIDH1R132H [1], the “fold lower potency than (S)-2 in functional assays” value is recorded as “roughly 7 fold”, the “Amax (fit parameter)” value is reported as 98 (96−100) %, the “Amin (fit parameter)” value is listed as 1.8 (0.6−3.0) % and the Hill slope is 2.8 (2.5−3.0). For the same compound, the IC50 on mIDH1R132H [1] was found to be 713 nM. For the same compound, the “decomposition in DMSO” value in series [3] was “less than 10%”.

With `N#Cc1ccc(NCc2cc3cc(F)ccc3[nH]c2=O)cc1OCCF` [compound 5, 4-(((6-Fluoro-2-oxo-1,2-dihydroquinolin-3-yl)methyl)amino)-2-(2-fluoroethoxy)benzonitrile], at mIDH1R132H [1], the “Amax (fit parameter)” value was 41 (36−45) %, the “Amin (fit parameter)” value is 3 (2−3) %, the Hill slope is 2.1 (1.6−2.7) and the IC50 is 8280 nM. The “decomposition in DMSO” value in series [3] was “less than 10%”.

Regarding `CC(Nc1ccc(C#N)n(C)c1=O)c1cc2cc(F)ccc2[nH]c1=O` (centres unmarked) [mIDH-23], the IC50 on mIDH1R132H [4] (biochemical assays, read-out: IC50 (reported potency for inhibition of mIDH1R132H)) is 23 nM. Besides, the “Selectivity (ratio of biochemical IC50 values for mIDH1R132H and the wildtype enzyme)” value on mIDH1R132H [4] was above 400.

Source of the values: PMC11356819 (Molecules, 2024).
